In brackets after ≈: the same amount, converted by molar mass. Several values for one entry are separate records, joined by “and”; a condition that tells them apart may be missing. Identical values can stand only once. Like-named read-outs stand apart in the source and are kept apart here.
Columns and labels:
[1] = test system: MRSA 15903; test: microbe, parasite or virus in culture; type: cell-based, Staphylococcus aureus
Method: The fractionary inhibitory (FIC) concentration index for combinations of two antimicrobial agents was calculated as follows: FIC index=FICA+FICB=A/MICA+B/MICB where A and B are the MIC values of agent A and agent B in the combination, MICA and MICB are the MICs of agent A and agent B alone, and FICA and FICB are the FICs of agent A and agent B.
The FIC indexes were interpreted as follows: less than 0.5 indicates a clear re-sensitizing effect; from 0.5 to 4 indicates a marginal or null re-sensitizing effect; and over 4 indicates antagonism.
Experimental data for FIG. 4 were obtained as follows.

[2] = test system: S. aureus 15819; test: Antibiotic MIC by microdilution with or without sub-MIC polymer; type: cell-based, Staphylococcus aureus
[3] = test system: S. aureus 43300; test: as above; type: cell-based, Staphylococcus aureus
Method: (§1) MICs were determined by microdilution susceptibility testing in 96-well plates (by Nunc) using inocula of 10^5 bacteria per ml. Cell populations were evaluated by optical density measurements at 620 nm and were calibrated against a set of standards. Hundred (100) μl of a bacterial suspension were added to 100 μl of culture medium (control) or to 100 μl of culture medium containing various polymer concentrations in 2-fold serial dilutions. Inhibition of proliferation was determined by optical density measurements at 620 nm after an incubation period of 24 hours at 37° C.
Table 8 below presents the MIC values of antibiotics in presence or absence of C12(5-ene)KKNC12KNH2 (SEQ ID NO: 2) at sub-MIC levels of the polymer, as measured for the S. aureus strains 43300 (ATCC), 15819 (clinical isolate), 15877 (clinical isolate) and 15852 (clinical isolate). MICs were determined by microdilution susceptibility testing in 96-well plates (Nunc) using inocula of 10^5 bacteria per ml. One hundred (100) μl of a bacterial suspension were added to 100 μl of culture medium (control) or to 100 μl of culture medium containing various antibiotic and C12(5-ene)KKNC12KNH2 (SEQ ID NO: 2) concentrations in 2-fold serial dilutions. Inhibition of proliferation was determined by optical density measurements at 620 nm after an incubation period of 24 hours at 37° C.
(§2) 100 μl of a bacterial suspension were added to 100 μl of culture medium (control) or to 100 μl of culture medium containing various antibiotic and C14(9-ene)KKNC12KNH2 (SEQ ID NO: 5) concentrations in 2-fold serial dilutions. Inhibition of proliferation was determined by optical density measurements at 620 nm after an incubation period of 24 hours at 37° C.

[4] = test system: S. maltophila 748; test: as above; type: cell-based, Stenotrophomonas maltophila
[5] = test system: S. aureus 17314; test: as above; type: cell-based, Staphylococcus aureus
[6] = test system: E. coli 16329; type: cell-based, Escherichia coli
Method: as §1, §2

[7] = test system: E. coli 14182; test: Antibiotic MIC by microdilution with or without sub-MIC polymer; type: cell-based, Escherichia coli
[8] = test system: E. coli 16327; test: microbe, parasite or virus in culture; settings: for Antibiotic MIC: E. coli 16327
Method: as §1, §2

[9] = +½ MIC (3.12 μM) C14(9-ene)KKNC12KNH2

For `O=C(O)c1cn(C2CC2)c2cc(N3CCNCC3)c(F)cc2c1=O` [Ciprofloxacin, ciprofloxacin], the MIC ([1]; MRSA 15903, +¼ polymer MIC (1.6 μM) NC12(KNC12K)2NH2) was 32 µg/mL, the MIC ([1]; MRSA 15903, +½ polymer MIC (3.1 μM) NC12(KNC12K)2NH2) was 1 µg/mL and the MIC ([1]; MRSA 15903, +⅓ polymer MIC (2.1 μM) NC12(KNC12K)2NH2) was 16 µg/mL. For the same molecule, the “MIC, ¼ + MIC OAK” value ([1]; MRSA 15903, with C12K(KNC10K)3NH2 (SEQ ID NO: 10) at ¼ of its MIC) was 128 µg/mL, the “MIC, ½ + MIC OAK” value ([1]; MRSA 15903, with C12K(KNC10K)3NH2 (SEQ ID NO: 10) at ½ of its MIC) was 64 µg/mL and the “MIC, ⅓ + MIC OAK” value ([1]; MRSA 15903, with C12K(KNC10K)3NH2 (SEQ ID NO: 10) at ⅓ of its MIC) was 128 µg/mL. It also gave an MIC ([1]; S. aureus CI-15903, +polymer (¼ MIC) C12(5-ene)KKNC12KNH2) of 32 µg/mL, an MIC ([1]; S. aureus CI-15903, +polymer (½ MIC) C12(5-ene)KKNC12KNH2) of 0.25 µg/mL and an MIC ([1]; S. aureus CI-15903, +polymer (⅓ MIC) C12(5-ene)KKNC12KNH2) of 4 µg/mL. The MIC ([1]; Staphylococcus aureus, MRSA, 24 h, MRSA 15903, antibiotic alone (Table 22), read-out: MIC, Alone) was 256 µg/mL, the MIC ([1]; Staphylococcus aureus, MRSA, 24 h, MRSA 15903, antibiotic alone, read-out: MIC) was 64 µg/mL and the MIC ([1]; Staphylococcus aureus, MRSA, 24 h, S. aureus CI-15903, alone, read-out: MIC) was 64 µg/mL. For the same molecule, the “Antibiotic MIC” value [2] was 0.125 µg/mL and 0.125 to 0.25 µg/mL, the “Antibiotic MIC” value ([2]; S. aureus 15819, +¼ MIC (1.6 μM) C12K(KNC12K)3NH2) was 0.125 µg/mL and the “Antibiotic MIC” value ([2]; S. aureus 15819, +½ MIC (3.12 μM) C12K(KNC12K)3NH2) was 0.06 µg/mL. The “Antibiotic MIC” value ([2]; S. aureus 15819, +⅓ MIC (2.1 μM) C12K(KNC12K)3NH2) was 0.125 µg/mL, the “Antibiotic MIC” value ([2]; S. aureus 15819, no polymer (None), Table 8) was 0.125 to 0.25 µg/mL and the “Antibiotic MIC” value ([2]; S. aureus 15819, no polymer (None), Table 11) was 0.125 to 0.25 µg/mL. The “Antibiotic MIC” value ([2]; S. aureus 15819, no polymer (None), Table 13) was 0.25 µg/mL, the “Antibiotic MIC” value ([3]; +¼ MIC (1.6 μM) C14(9-ene)KKNC12KNH2) was 0.25 to 0.5 µg/mL and the “Antibiotic MIC” value ([3]; +½ MIC (3.12 μM) C12(5-ene)KKNC12KNH2) was 0.03 µg/mL. The “Antibiotic MIC” value [3, 9] was 0.25 µg/mL, the “Antibiotic MIC” value ([3]; +⅓ MIC (2.1 μM) C14(9-ene)KKNC12KNH2) was 0.25 to 0.5 µg/mL and the “Antibiotic MIC” value ([3]; no polymer (None), Table 8) was 0.5 µg/mL. For the same molecule, the “Antibiotic MIC” value ([3]; no polymer (None), Table 9) was 0.5 µg/mL, the “Antibiotic MIC” value ([3]; no polymer (None), Table 10) was 0.25 µg/mL and the “Antibiotic MIC” value ([3]; no polymer (None), Table 11) was 0.5 µg/mL. The “Antibiotic MIC” value ([3]; no polymer (None), Table 12) was 0.5 µg/mL, the “Antibiotic MIC” value ([4]; +¼ MIC (1.6 μM) C12K(KNC12K)3NH2) was 8 µg/mL and the “Antibiotic MIC” value ([4]; +½ MIC (3.12 μM) C12K(KNC12K)3NH2) was 2 µg/mL. The “Antibiotic MIC” value ([4]; +⅓ MIC (2.1 μM) C12K(KNC12K)3NH2) was 4 to 8 µg/mL, the “Antibiotic MIC” value ([4]; no polymer (None), Table 13) was 8 µg/mL and the “Antibiotic MIC” value [5] was 128 µg/mL. The “Antibiotic MIC” value ([5]; S. aureus 17314, +¼ MIC (1.6 μM) C12K(KNC12K)2NH2) was 128 µg/mL, the “Antibiotic MIC” value ([5]; S. aureus 17314, +¼ MIC (1.6 μM) C14(9-ene)KKNC12KNH2) was 64 µg/mL and the “Antibiotic MIC” value ([5]; S. aureus 17314, +¼ MIC (1.6 μM) C16(9-ene)KKNC12KNH2) was 32 µg/mL. The “Antibiotic MIC” value ([5]; S. aureus 17314, +½ MIC (3.12 μM) C12K(KNC12K)2NH2) was 64 µg/mL, the “Antibiotic MIC” value ([5]; S. aureus 17314, +½ MIC (3.12 μM) C12KKNC12KNH2) was 64 µg/mL and the “Antibiotic MIC” value ([5]; S. aureus 17314, +½ MIC (3.12 μM) C14(9-ene)KKNC12KNH2) was 64 µg/mL. For the same molecule, the “Antibiotic MIC” value ([5]; S. aureus 17314, +½ MIC (3.12 μM) C16(9-ene)KKNC12KNH2) was 16 µg/mL, the “Antibiotic MIC” value ([5]; S. aureus 17314, +⅓ MIC (2.1 μM) C12K(KNC12K)2NH2) was 64 µg/mL and the “Antibiotic MIC” value ([5]; S. aureus 17314, +⅓ MIC (2.1 μM) C12KKNC12KNH2) was 64 µg/mL. The “Antibiotic MIC” value ([5]; S. aureus 17314, +⅓ MIC (2.1 μM) C14(9-ene)KKNC12KNH2) was 64 µg/mL, the “Antibiotic MIC” value ([5]; S. aureus 17314, +⅓ MIC (2.1 μM) C16(9-ene)KKNC12KNH2) was 32 µg/mL and the “Antibiotic MIC” value ([5]; S. aureus 17314, no polymer (None), Table 9) was 64 µg/mL. The “Antibiotic MIC” value ([5]; S. aureus 17314, no polymer (None), Table 10) was 64 µg/mL, the “Antibiotic MIC” value ([5]; S. aureus 17314, no polymer (None), Table 11) was 128 µg/mL and the “Antibiotic MIC” value ([5]; S. aureus 17314, no polymer (None), Table 12) was 128 µg/mL. The “Antibiotic MIC” value ([6]; E. coli 16329, +¼ MIC (1.6 μM) C16(9-ene)KKNC12KNH2) was 64 µg/mL, the “Antibiotic MIC” value ([6]; E. coli 16329, +½ MIC (3.12 μM) C16(9-ene)KKNC12KNH2) was 64 µg/mL and the “Antibiotic MIC” value ([6]; E. coli 16329, +⅓ MIC (2.1 μM) C16(9-ene)KKNC12KNH2) was 64 µg/mL. The “Antibiotic MIC” value ([6]; E. coli 16329, no polymer (None), Table 10) was 64 µg/mL, the “Antibiotic MIC” value ([6]; E. coli U-16329, +¼ MIC C12K(NC8K)5NH2) was 64 µg/mL and the “Antibiotic MIC” value ([6]; E. coli U-16329, +½ MIC C12K(NC8K)5NH2) was 32 µg/mL. The “Antibiotic MIC” value ([6]; E. coli U-16329, +⅓ MIC C12K(NC8K)5NH2) was 64 µg/mL, the “Antibiotic MIC, None” value ([6]; E. coli U-16329, antibiotic alone (Table 15)) was 64 µg/mL and the “Antibiotic MIC” value ([6]; E. coli U-16329, no polymer (None), Table 14) was 64 µg/mL. For the same molecule, the “Antibiotic MIC in presence of C12K(NC8K)7NH2 (SEQ ID NO: 4), +¼ MIC” value ([6]; E. coli U-16329, polymer at ¼ of its MIC) was 64 to 128 µg/mL, the “Antibiotic MIC in presence of C12K(NC8K)7NH2 (SEQ ID NO: 4), +½ MIC” value ([6]; E. coli U-16329, polymer at ½ of its MIC) was 64 µg/mL and the “Antibiotic MIC in presence of C12K(NC8K)7NH2 (SEQ ID NO: 4), +⅓ MIC” value ([6]; E. coli U-16329, polymer at ⅓ of its MIC) was 64 µg/mL. The “Antibiotic MIC, None” value ([7]; antibiotic alone (Table 15)) was <0.03 µg/mL, the “Antibiotic MIC” value ([7]; no polymer (None), Table 14) was <0.03 µg/mL and the “Antibiotic MIC” value ([8]; +¼ MIC (1.6 μM) C12K(KNC12K)2NH2) was >512 µg/mL. For the same molecule, the “Antibiotic MIC” value ([8]; +½ MIC (3.12 μM) C12K(KNC12K)2NH2) was 128 µg/mL, the “Antibiotic MIC” value [8, 9] was 32 to 64 µg/mL and the “Antibiotic MIC” value ([8]; +⅓ MIC (2.1 μM) C12K(KNC12K)2NH2) was >512 µg/mL. For the same molecule, the “Antibiotic MIC” value ([8]; no polymer (None), Table 9) was >512 µg/mL, the “Antibiotic MIC” value ([8]; no polymer (None), Table 10) was >512 µg/mL and the “Antibiotic MIC” value ([8]; no polymer (None), Table 12) was >512 µg/mL. For the same molecule, the “MIC, ¼ + MIC OAK” value ([8]; E. coli U16327, with C12K(KNC10K)3NH2 (SEQ ID NO: 10) at ¼ of its MIC) was 128 to 256 µg/mL, the “MIC, ½ + MIC OAK” value ([8]; E. coli U16327, with C12K(KNC10K)3NH2 (SEQ ID NO: 10) at ½ of its MIC) was 128 µg/mL and the “MIC, ⅓ + MIC OAK” value ([8]; E. coli U16327, with C12K(KNC10K)3NH2 (SEQ ID NO: 10) at ⅓ of its MIC) was 128 µg/mL. For the same molecule, the “Antibiotic MIC, None” value ([8]; E. coli U-16327, antibiotic alone (Table 15)) was 128 to 256 µg/mL, the “Antibiotic MIC in presence of C12K(NC8K)7NH2 (SEQ ID NO: 4), +¼ MIC” value ([8]; E. coli U-16327, polymer at ¼ of its MIC) was 64 to 128 µg/mL and the “Antibiotic MIC in presence of C12K(NC8K)7NH2 (SEQ ID NO: 4), +½ MIC” value ([8]; E. coli U-16327, polymer at ½ of its MIC) was 16 µg/mL. For the same molecule, the “Antibiotic MIC in presence of C12K(NC8K)7NH2 (SEQ ID NO: 4), +⅓ MIC” value ([8]; E. coli U-16327, polymer at ⅓ of its MIC) was 32 to 64 µg/mL and the MIC ([8]; Escherichia coli, 16327, read-out: MIC, Alone) was 256 µg/mL (≈ 773 µM).
